Laboratory results published in patent US8592451B2, “Reversible nondepolarizing neuromuscular blockade agents and methods for their use” (Cornell University, priority 2009, dated 2013).

What was measured:
[1] = L-cysteine adduction kinetics in vitro (HPLC); format: physicochemical; details: pH 7.4, 37° C.; for NMBA peak area / [NMBA] remaining / ln* = ln (([NMBA]t[L-cysteine]t=0)/([NMBA]t=0[L-cysteine]t)): CW 011 1000 μg/mL + 1.05 equiv. L-cysteine
Description: In a second experiment, to evaluate degradation in the presence of L-cysteine, buffered solutions (pH 7.4) of gantacurium, CW 002 or CW 011 were freshly prepared at 37° C. to give experimental concentrations of 1000 μg/mL (CW 002 and CW 011) and 200 μg/mL (gantacurium), after addition to and mixing with a 5% Molar excess of L-cysteine at time=0.
The concentration of neuromuscular blocking agent/parent compound remaining at specified time points after mixing was determined by high performance liquid chromatography. The concentration of blocking agent at each time point was determined from a separately prepared reaction mixture, due to the rapid rate of L-cysteine adduction. The reaction rate constant for the second order reaction of each neuromuscular blockade agent (NMBA) with L-cysteine was derived by plotting the natural log of ([NMBA]t[L-cysteine]t=0/[NMBA]t=0[L-cysteine]t) vs. time.
Concentrations selected were 200, 100 and 50 μg/ml which are approximately proportional to the relative potencies (ED 95) of gantacurium, CW 002 and CW 011 respectively. A degradation (adduction) pathway in the presence of L-cysteine for each of the three compounds was proposed.
The reaction of L-cysteine with CW 002, CW 011 or gantacurium is first order in the case of both the neuromuscular blockade agent (NMBA) and L-cysteine, represented by the rate equation (1). d[Adduct]/dt=−d[NMBA]/dt=ka[NMBA][L-cysteine] (1)
Calculation of the L-cysteine adduction half time requires experimental derivation of the reaction rate constant, ka, for each compound. The initial concentrations of NMBA and L-cysteine are unequal in the experiments conducted for this study, thus integration of equation 1 gives equation 2, where [NMBA]0 is the NMBA concentration at time equals 0 and [NMBA]t is the NMBA concentration at a time point, t.
[formula] A plot of the ln(([NMBA]t [L-cysteine]0)/([NMBA]0 [L-cysteine]t)) versus time (ln* vs. t) gives a line, with slope equal to ka([NMBA]0−[L-cysteine]0). An adduction reaction half time can be calculated by solving for ka to be used in equation 3.
NMBA standard solutions were prepared by a method similar to that used to prepare hydrolysis standards. The standards were prepared at 1000 μg/mL for CW 002 and CW 011 and 200 μg/mL for gantacurium.
Solutions used for determination of NMBA concentration at the reported times for CW 002 and CW 011 were prepared as follows: L-cysteine hydrochloride monohydrate was charged to a volumetric flask in de-ionized water. A 5 mL aliquot of the L-cysteine solution (1.05 equiv. L-cysteine with respect to NMBA) was transferred by volumetric pipette to a flask held at 37.0±0.3° C. CW 002 or CW 011 was then charged to a separate 25 mL volumetric flask and diluted to volume with pH 7.4 phosphate buffer at 37.0° C. The NMBA solution was then immediately transferred to the flask containing L-cysteine to give an initial NMBA concentration of 1000 μg/mL. Solutions used for determination of gantacurium concentration versus time were prepared in a similar manner to give an initial concentration of 200 μg/mL. T=0 was defined as the time of addition of NMBA solution to L-cysteine solution. The times listed in the results table show the point of HPLC sample injection following mixing of L-cysteine and NMBA at time=0 (Table 1, below).
Rate constants were calculated using equation (3) and the slope of the trend line derived from each data set. The strong linear correlation of the data within each set supports the use of second order kinetics for analysis of the cysteine adduction reactions.
Reaction half times were calculated using equation 4 and the experimentally determined rate constants. The initial NMBA concentrations were chosen to reflect the relative potency observed in vivo.

[2] = test system: twitch of the extensor digitorum; experiment: Reversal of neuromuscular blockade by L-cysteine or neostigmine in anesthetized rhesus monkeys; format: in vivo, rhesus monkeys (Macaca mulatta)
Description: A control dose of 0.15 mg/kg CW 002 was allowed to recover spontaneously to TOF 110-120%. A second dose was given 60 minutes later, followed one minute afterwards by either neostigmine (0.05 mg/kg+atropine 0.05 mg/kg) or L-cysteine (10, 20, 30 or 50 mg/kg). Total duration and 5-95% recovery intervals were compared during spontaneous recovery vs. antagonism by L-cysteine or reversal by neostigmine.
This series of paired comparisons was designed to generate dose-response data comparing spontaneous recovery of high doses of CW 011 (from 4 to 64× ED95) versus immediate antagonism at +1 min by an optimal dose of L-cysteine (50 mg/kg), previously determined during studies of immediate antagonism of CW 002. This experiment was done to explore the limits of chemical antagonism by L-cysteine of these olefinic diester neuromuscular blocking drugs, using CW 011 as a typical example with an intermediate duration of action. Five groups of animals first received a control dose of CW 011 at 4, 8, 16, 32 or 64× ED 95 (0.1 to 1.6 mg/kg). Sixty minutes after spontaneous recovery of the control dose to TOF 110-120%, the same dose was repeated, followed 1 min later by L-cysteine (50 mg/kg). Total duration of action and 5-95% recovery interval were compared during spontaneous recovery and following antagonism by L-cysteine
The reversal of neuromuscular blockade by cysteine (5-50 mg/kg i.v.) was studied. Reversal was tested as follows: full paralysis was induced by injection of a dose of approximately 2-6× ED 95 of the compound in question. After spontaneous recovery of this dose, a second identical dose was given 15-30 min later. Cysteine was then given at +1 min after injection of the neuromuscular blocking drug at a point where no twitch was apparent (“immediate reversal”) or at the beginning of recovery from neuromuscular blockade at two percent twitch height (“classical reversal”). Comparisons were made among compounds with respect to rapidity and ease of cysteine reversal, by comparing 5-95% recovery times, and total durations of action (injection to 95% twitch recovery). Spontaneous recovery was compared with cysteine-accelerated recovery. […]

COc1ccc(C[C@@H]2c3cc(OC)c(OC)cc3CC[N@@+]2(C)CCCOC(=O)/C=C\C(=O)OCCC[N@+]2(C)CCc3cc(OC)c(OC)cc3[C@H]2Cc2cc(OC)c(OC)c(OC)c2)cc1OC [CW 011]
NMBA peak area ([1]; Trial 1, 123 Sec): 2587.0 mAU's
[NMBA] remaining ([1]; Trial 1, 123 Sec): 228 µM
ln* = ln (([NMBA]t[L-cysteine]t=0)/([NMBA]t=0[L-cysteine]t)) ([1]; Trial 1, 123 Sec): −0.248
NMBA peak area ([1]; Trial 2, 132 Sec): 2500.5 mAU's
[NMBA] remaining ([1]; Trial 2, 132 Sec): 221 µM
ln* = ln (([NMBA]t[L-cysteine]t=0)/([NMBA]t=0[L-cysteine]t)) ([1]; Trial 2, 132 Sec): −0.256
NMBA peak area ([1]; Trial 3, 143 Sec): 2293.0 mAU's
[NMBA] remaining ([1]; Trial 3, 143 Sec): 202 µM
ln* = ln (([NMBA]t[L-cysteine]t=0)/([NMBA]t=0[L-cysteine]t)) ([1]; Trial 3, 143 Sec): −0.284
NMBA peak area ([1]; Trial 4, 182 Sec): 1765.4 mAU's
[NMBA] remaining ([1]; Trial 4, 182 Sec): 155 µM
ln* = ln (([NMBA]t[L-cysteine]t=0)/([NMBA]t=0[L-cysteine]t)) ([1]; Trial 4, 182 Sec): −0.378
Plot Slope (ln* vs. time) ([1]; L-cysteine adduction, data of Table 1): −0.0023
ka, second order rate constant of L-cysteine adduction [1]: 24.7 M⁻¹ s⁻¹
half-life at 50 μg/ml ([1]; pH 7.4 phosphate buffer with L-cysteine, calculated at [NMBA]0 0.0000493 M (50 μg/ml), read-out: L-cysteine adduction reaction half time t1/2): 13.7 min
time to reversal of blockade with cysteine (FIG. 2B) ([2]; CW 011, all cysteine concentrations tested (10 mg/kg to 50 mg/kg as worded elsewhere in the source)): less than 6 minutes
time from cysteine administration to beginning of reversal (FIG. 2B) ([2]; CW 011, higher cysteine doses): 2 to 3 min
time to spontaneous reversal of blockade (FIG. 2) ([2]; CW 011, no reversal agent): more than 12 minutes
reversibility of neuromuscular blockade by thiol compounds ([2]; cysteine (L or D) or glutathione): reversible
effect of neostigmine given immediately after the blocking drug ([2]; immediate reversal): ineffective
spontaneous reversal rate (FIG. 2A) ([2]; increasing doses of CW 011 (4 to 64× ED95), no reversal agent): decreases with increasing CW 011 dose
classical antagonism of neuromuscular blockade by neostigmine ([2]; neostigmine given at beginning of spontaneous recovery, e.g. at 2% twitch height): showed antagonism
